The results in this text go back to US20080249129A1, “Compositions and Methods for Treatment of Protein Misfolding Diseases” (priority 2004, published 2008).

Counter-ions that a name gives are not always drawn. Peptide text beside a SMILES is read from it.

One assay concerns yeast expressing two copies of alpha synuclein. In kind it is cell-based.
Details: not given
The text has this:
(§1) An exemplary aS-expressing yeast cell for use in a growth rescue screen described herein is yeast expressing two copies of aS, as described in Outeiro et al. (2003) Science 302:1772. An exemplary htt-expressing strain for use in a growth rescue screen described herein is yeast expressing a fusion protein comprising a FLAG tag and an expanded htt polyQ (103) domain, as described in Meriin et al. (2002) J. Cell Biol. 158:591.
(§2) Phenotype MicroArray™ (Biolog, Inc., Hayward, Calif.) was employed to evaluate the effects of various compounds in yeast expressing one or two copies of alpha synuclein.
On to `CCC(O)C(=O)O` (racemic) [D,L-a-hydroxy-butyric acid], for which the “effect on alpha synuclein-mediated toxicity” value is listed as “suppressors of alpha synuclein-mediated toxicity”.

`Oc1c(Cl)cc(Cl)c(Cl)c1Cc1c(O)c(Cl)cc(Cl)c1Cl` [hexachlorophene]: the “effect on alpha synuclein-mediated toxicity” value was “suppressors of alpha synuclein-mediated toxicity”.

Take `CC(C)Cc1ccc(C(C)C(=O)O)cc1` (stereo not drawn) [ibuprofen]: the “effect on alpha synuclein-mediated toxicity” value was “suppressors of alpha synuclein-mediated toxicity”.

`CC(Cc1ccc(O)c(O)c1)C(C)Cc1ccc(O)c(O)c1` (stereo not drawn) [nordihydroguaiaretic acid]: the “effect on alpha synuclein-mediated toxicity” value is reported as “suppressors of alpha synuclein-mediated toxicity”.

As for sodium metavanadate, the “effect on alpha synuclein-mediated toxicity” value is given as “suppressors of alpha synuclein-mediated toxicity”.

Still in this assay, the particulars now being: yeast expressing two copies of alpha synuclein; Phenotype MicroArray.
As to `Cc1cccc(O)c1` [m-cresol], the “effect on alpha synuclein-mediated toxicity” value was “suppressors of alpha synuclein-mediated toxicity”.

Turning to `O=[Si]([O-])[O-].[Na+].[Na+]` [sodium metasilicate], the “effect on alpha synuclein-mediated toxicity” value is “suppressors of alpha synuclein-mediated toxicity”.

In the case of ruthenium red, the “effect on alpha synuclein-mediated toxicity” value is on record as “suppressors of alpha synuclein-mediated toxicity”.

In a further assay the test system is yeast expressing one copy of alpha synuclein. In kind it is cell-based.
Details: not given
Text: as §2
On to `O=S([O-])([O-])=S.[Na+].[Na+]` [sodium thiosulfate], for which the “effect on alpha synuclein-mediated toxicity” value is given as “enhancers of alpha synuclein-mediated toxicity”.

Take “sodium phosphate [sodium phosphate pH 7]”: the “effect on alpha synuclein-mediated toxicity” value is listed as “enhancers of alpha synuclein-mediated toxicity”.

Staying with this assay, now noted: yeast expressing one copy of alpha synuclein; Phenotype MicroArray.
Turning to `CCCCCCCCCCCCC/C=C/[C@@H](O)[C@@H](N)CO` [D-Sphingosine], the “effect on alpha synuclein-mediated toxicity” value is “enhancers of alpha synuclein-mediated toxicity”.

Turning to `CC[C@H](C)[C@H](N)C(=O)O` [L-Isoleucine], the “effect on alpha synuclein-mediated toxicity” value is recorded as “enhancers of alpha synuclein-mediated toxicity”.

For `CSCC[C@H](NC(=O)[C@@H](N)Cc1ccccc1)C(=O)O` [Phe-Met] (H-Phe-Met-OH), the “effect on alpha synuclein-mediated toxicity” value is “enhancers of alpha synuclein-mediated toxicity”.

Regarding `COc1ccc(C[C@H]2NC[C@H](O)[C@H]2OC(C)=O)cc1` [anisomycin], the “effect on alpha synuclein-mediated toxicity” value is recorded as “enhancers of alpha synuclein-mediated toxicity”.

In the case of `CC1=C(C(=O)Nc2ccccc2)SCCO1` [carboxin], the “effect on alpha synuclein-mediated toxicity” value is listed as “enhancers of alpha synuclein-mediated toxicity”.

In the case of `COc1ccc2c(c[n+](C)c3c4cc5c(cc4ccc23)OCO5)c1OC` [chelerythrine], the “effect on alpha synuclein-mediated toxicity” value is reported as “enhancers of alpha synuclein-mediated toxicity”.

For `CN(C)C(=O)/N=N/C(=O)N(C)C` [diamide], the “effect on alpha synuclein-mediated toxicity” value is “enhancers of alpha synuclein-mediated toxicity”.

Consider `OP(O)(=S)S` [dithiophosphate], for which the “effect on alpha synuclein-mediated toxicity” value is listed as “enhancers of alpha synuclein-mediated toxicity”.

As for `CCCCCCCCCCCC[N+](C)(C)C.[Br-]` [dodecyltrimethyl ammonium bromide], the “effect on alpha synuclein-mediated toxicity” value is recorded as “enhancers of alpha synuclein-mediated toxicity”.

`CC[C@@]1([C@@H]2O[C@@H]([C@H]3O[C@@](O)(CO)[C@H](C)C[C@@H]3C)C[C@@H]2C)CC[C@H]([C@]2(C)CC[C@]3(C[C@H](O)[C@@H](C)[C@@H]([C@@H](C)[C@@H](OC)[C@H](C)C(=O)O)O3)O2)O1` [monensin]: the “effect on alpha synuclein-mediated toxicity” value was “enhancers of alpha synuclein-mediated toxicity”.

For `CC1=C(C(=O)Nc2ccccc2)S(=O)(=O)CCO1` [oxycarboxin], the “effect on alpha synuclein-mediated toxicity” value was “enhancers of alpha synuclein-mediated toxicity”.

Take `CC1=CC(=O)c2c(O)cccc2C1=O` [plumbagin]: the “effect on alpha synuclein-mediated toxicity” value is recorded as “enhancers of alpha synuclein-mediated toxicity”.

Turning to `O=C([O-])c1ccccc1.[Na+]` [sodium benzoate pH 5.2, sodium benzoate], the “effect on alpha synuclein-mediated toxicity” value is “enhancers of alpha synuclein-mediated toxicity”.

For `OP(O)(O)=S` [thiophosphate], the “effect on alpha synuclein-mediated toxicity” value is “enhancers of alpha synuclein-mediated toxicity”.

Another assay relates to yeast expressing a toxic amount and form of huntingtin. In kind it is cell-based.
Details: not given
Text: as §1
(§3) Phenotype MicroArray™ (Biolog, Inc., Hayward, Calif.) was employed to evaluate the ability of various compounds to rescue viability in yeast expressing a toxic amount and form of huntingtin. […] Bioscreen C MBR (Labsystem Corp, Helsinki, Finland) was also used to evaluate the effects of the clioquinols.
With `Oc1cccc2cccnc12` [8-Hydroxyquinoline], the “effect on huntingtin-mediated toxicity (rescue of viability)” value (“effect … (rescue of viability)” below) was “suppressors of huntingtin-mediated toxicity”.

`CC(Cc1ccc(O)c(O)c1)C(C)Cc1ccc(O)c(O)c1` (stereo not drawn) [nordihydroguaiaretic acid]: the “effect … (rescue of viability)” value is on record as “suppressors of huntingtin-mediated toxicity”.

Staying with this assay, now noted: yeast expressing toxic huntingtin; Phenotype MicroArray.
`Cc1ccc2c(Cl)cc(Cl)c(O)c2n1` [5,7-Dichloro-8-hydroxy-quinaldine]: the “effect … (rescue of viability)” value is “suppressors of huntingtin-mediated toxicity”.

With `O=[N+]([O-])c1ccc(O)c2ncccc12` [8-Hydroxy-5-nitroquinoline], the “effect … (rescue of viability)” value is listed as “suppressors of huntingtin-mediated toxicity”.

Take `N=C(N)N` [guanidine hydrochloride]: the “effect … (rescue of viability)” value is “suppressors of huntingtin-mediated toxicity”.

For the compound `Cc1cccc(O)c1` [m-cresol], the “effect … (rescue of viability)” value is listed as “suppressors of huntingtin-mediated toxicity”.

For a further assay the test system is unchanged. In kind it is cell-based.
Details: not given
This is another data set of the same source.
Text: For example, the Bioscreen-C system (Labsystem Corp, Helsinki, Finland) permits the growth of up to 200 cell cultures at the same time, under different conditions. Growth rates are monitored optically, recorded automatically, and stored as digital files for further manipulations. […] Mutants and chemicals from a variety of sources will be tested.
as §3
As to `Oc1cccc2cccnc12` [8-Hydroxyquinoline], the “effect on huntingtin-mediated toxicity” value is listed as “alleviated huntingtin-mediated toxicity”.

Staying with this assay, now noted: yeast expressing toxic huntingtin; Bioscreen C MBR.
`Cc1ccc2c(Cl)cc(Cl)c(O)c2n1` [5,7-Dichloro-8-hydroxy-quinaldine]: the “effect on huntingtin-mediated toxicity” value is recorded as “alleviated huntingtin-mediated toxicity”.

For `O=[N+]([O-])c1ccc(O)c2ncccc12` [8-Hydroxy-5-nitroquinoline], the “effect on huntingtin-mediated toxicity” value is listed as “alleviated huntingtin-mediated toxicity”.
